These results are taken from patent US20240299452A1, “Rapamycin and Cell Therapy” (Innovative Cellular Therapeutics Holdings, Ltd., priority 2023, published 2024).

Series [1] relates to CD19 CAR T cells stimulated with nalm6 cells. As to the kind of experiment: CAR T cell proliferation after 96 hours with rapamycin. Type of series: cell-based. Particulars: nalm6 stimulation, CD4+ and CD8+ subsets. The method, then: The following study investigated the effects of rapamycin on CAR T cells and tumor cell lines. In the first part of the experiment, cytokine release assays were performed. […] In the same experiments, T cell proliferation was assessed to determine whether rapamycin affects the expansion of CAR T cells. […] In the last part of the study, rapamycin was directly applied to two types of tumor cell lines, PC3 and LNCAP, to assess its impact on tumor cell proliferation. […] It can decrease the proliferation of tumor cells, aligning with clinical observations.
The bar graphs depict the proliferation rates of CAR T cells, specifically CD4+ and CD8+ subsets, after 96 hours of stimulation with CD19 antigen and varying concentrations of rapamycin. […] CD8: The right graph indicates the percentage of proliferating CD8+ CAR T cells under the same treatment conditions as CD4+.

For series [2] the following is noted: taken orally at a dose of 2 mg/day; read-out: maximum blood concentration (Cmax); cited from earlier work.

SMILES strings stand for the structures.

In the case of `CO[C@H]1C[C@@H]2CC[C@@H](C)[C@@](O)(O2)C(=O)C(=O)N2CCCC[C@H]2C(=O)O[C@H]([C@H](C)C[C@@H]2CC[C@@H](O)[C@H](OC)C2)CC(=O)[C@H](C)/C=C(\C)[C@@H](O)[C@@H](OC)C(=O)[C@H](C)C[C@H](C)/C=C/C=C/C=C/1C` [rapamycin, Rapamycin], in series [1], the “CAR T cell proliferation” value is given as “not inhibited”. The Cmax in series [2] was 16 nM.
